Active and inactive are the calls of the source. No cut-off for these calls is given here.
How the values were obtained:
[1] = organism: Homo sapiens; experiment: Selectivity index, ratio of IC50 for USP14 (unknown origin) to IC50 for recombinant full length USP7 (unknown origin) using di-ubiquitin as substrate by fluorescence based assay
[2] = organism: Homo sapiens; experiment: Selectivity index, ratio of IC50 for USP47 (unknown origin) to IC50 for recombinant full length USP7 (unknown origin) using di-ubiquitin as substrate by fluorescence based assay
[3] = biological target: T1, Ubiquitin carboxyl-terminal hydrolase 7 (Homo sapiens, UniProt Q93009); experiment: Inhibition of recombinant full length USP7 (unknown origin) using di-ubiquitin as substrate by fluorescence based assay
Target sequence in this assay (Q93009 whole entry): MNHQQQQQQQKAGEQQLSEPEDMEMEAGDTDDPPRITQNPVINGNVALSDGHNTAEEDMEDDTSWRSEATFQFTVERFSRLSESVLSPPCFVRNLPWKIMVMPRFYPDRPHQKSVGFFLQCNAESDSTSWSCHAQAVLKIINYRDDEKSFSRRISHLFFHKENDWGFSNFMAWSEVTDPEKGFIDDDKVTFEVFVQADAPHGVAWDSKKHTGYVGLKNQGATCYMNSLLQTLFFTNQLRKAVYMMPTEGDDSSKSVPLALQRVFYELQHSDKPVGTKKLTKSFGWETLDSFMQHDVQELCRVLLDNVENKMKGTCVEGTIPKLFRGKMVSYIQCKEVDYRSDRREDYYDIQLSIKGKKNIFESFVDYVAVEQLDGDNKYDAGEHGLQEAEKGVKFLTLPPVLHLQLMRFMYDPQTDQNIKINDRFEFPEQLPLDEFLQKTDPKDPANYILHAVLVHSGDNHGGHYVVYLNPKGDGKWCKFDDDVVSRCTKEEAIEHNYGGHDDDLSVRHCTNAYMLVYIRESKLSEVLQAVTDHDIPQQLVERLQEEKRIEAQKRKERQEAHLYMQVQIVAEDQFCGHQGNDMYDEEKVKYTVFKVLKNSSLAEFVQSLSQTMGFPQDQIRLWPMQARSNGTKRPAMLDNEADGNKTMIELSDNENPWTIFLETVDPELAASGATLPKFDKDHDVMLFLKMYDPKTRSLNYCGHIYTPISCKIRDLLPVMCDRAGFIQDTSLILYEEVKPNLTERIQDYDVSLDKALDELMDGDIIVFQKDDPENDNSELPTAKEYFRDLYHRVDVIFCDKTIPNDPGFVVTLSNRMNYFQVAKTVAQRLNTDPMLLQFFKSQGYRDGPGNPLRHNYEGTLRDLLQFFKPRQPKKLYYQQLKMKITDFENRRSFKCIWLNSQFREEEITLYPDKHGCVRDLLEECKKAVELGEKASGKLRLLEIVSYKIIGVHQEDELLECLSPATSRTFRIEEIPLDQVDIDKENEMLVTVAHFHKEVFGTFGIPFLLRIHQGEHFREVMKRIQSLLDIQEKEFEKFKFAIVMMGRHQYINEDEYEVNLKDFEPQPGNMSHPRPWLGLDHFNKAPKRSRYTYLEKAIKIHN

[4] = biological target: Ubiquitin carboxyl-terminal hydrolase 14 (Homo sapiens, UniProt P54578); experiment: Inhibition of USP14 (unknown origin)
Sequence of Ubiquitin carboxyl-terminal hydrolase 14 (P54578 whole entry): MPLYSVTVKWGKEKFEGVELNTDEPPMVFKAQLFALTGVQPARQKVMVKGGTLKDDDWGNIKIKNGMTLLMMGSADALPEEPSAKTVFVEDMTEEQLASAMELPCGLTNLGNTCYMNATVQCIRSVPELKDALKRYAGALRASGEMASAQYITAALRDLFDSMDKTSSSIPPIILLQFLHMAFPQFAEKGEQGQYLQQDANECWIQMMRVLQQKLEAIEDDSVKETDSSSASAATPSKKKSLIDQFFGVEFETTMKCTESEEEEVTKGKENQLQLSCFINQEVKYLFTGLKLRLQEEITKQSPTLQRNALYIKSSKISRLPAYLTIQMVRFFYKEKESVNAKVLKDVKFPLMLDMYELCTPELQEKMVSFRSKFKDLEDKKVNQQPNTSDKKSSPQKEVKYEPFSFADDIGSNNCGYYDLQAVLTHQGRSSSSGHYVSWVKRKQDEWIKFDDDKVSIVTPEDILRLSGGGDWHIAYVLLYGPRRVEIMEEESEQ

[5] = biological target: T2, Ubiquitin carboxyl-terminal hydrolase 47 (Homo sapiens, UniProt Q96K76); experiment: Inhibition of USP47 (unknown origin)
T2 sequence (Q96K76 whole entry): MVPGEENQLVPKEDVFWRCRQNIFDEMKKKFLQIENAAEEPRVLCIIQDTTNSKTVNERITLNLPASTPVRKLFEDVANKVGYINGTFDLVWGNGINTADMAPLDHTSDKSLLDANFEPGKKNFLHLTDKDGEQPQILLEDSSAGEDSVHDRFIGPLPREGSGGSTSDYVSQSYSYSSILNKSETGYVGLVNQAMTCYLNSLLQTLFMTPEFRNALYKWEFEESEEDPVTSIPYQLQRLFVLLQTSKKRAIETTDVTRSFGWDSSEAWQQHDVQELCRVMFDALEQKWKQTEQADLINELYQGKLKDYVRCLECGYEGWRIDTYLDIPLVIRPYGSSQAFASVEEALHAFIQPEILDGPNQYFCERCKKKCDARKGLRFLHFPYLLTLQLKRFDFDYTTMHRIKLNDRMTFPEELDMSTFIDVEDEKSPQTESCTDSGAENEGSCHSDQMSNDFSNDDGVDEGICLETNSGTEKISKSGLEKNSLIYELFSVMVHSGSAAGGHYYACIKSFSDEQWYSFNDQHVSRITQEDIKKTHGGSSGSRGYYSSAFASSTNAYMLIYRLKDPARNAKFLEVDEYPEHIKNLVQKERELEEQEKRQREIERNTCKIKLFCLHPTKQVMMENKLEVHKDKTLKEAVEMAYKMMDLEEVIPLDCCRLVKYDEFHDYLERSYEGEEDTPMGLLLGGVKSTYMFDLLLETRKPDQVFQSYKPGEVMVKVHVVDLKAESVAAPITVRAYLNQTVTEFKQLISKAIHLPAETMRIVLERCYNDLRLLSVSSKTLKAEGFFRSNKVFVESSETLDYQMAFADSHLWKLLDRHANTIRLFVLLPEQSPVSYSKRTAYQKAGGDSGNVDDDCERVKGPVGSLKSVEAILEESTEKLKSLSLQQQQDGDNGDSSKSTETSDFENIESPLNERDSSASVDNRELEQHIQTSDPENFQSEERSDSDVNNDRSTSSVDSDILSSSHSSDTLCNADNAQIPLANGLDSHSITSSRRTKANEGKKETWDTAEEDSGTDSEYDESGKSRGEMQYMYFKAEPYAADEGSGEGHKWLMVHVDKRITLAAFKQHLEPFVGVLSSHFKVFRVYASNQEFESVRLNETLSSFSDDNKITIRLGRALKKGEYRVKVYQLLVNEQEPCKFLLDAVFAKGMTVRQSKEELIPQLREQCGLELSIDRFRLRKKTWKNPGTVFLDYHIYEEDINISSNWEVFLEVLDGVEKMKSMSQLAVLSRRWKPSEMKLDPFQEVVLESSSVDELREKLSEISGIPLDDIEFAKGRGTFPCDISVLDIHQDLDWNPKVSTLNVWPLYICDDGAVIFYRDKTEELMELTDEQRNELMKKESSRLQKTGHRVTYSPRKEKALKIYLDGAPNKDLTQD

[6] = biological target: T3, Ubiquitin carboxyl-terminal hydrolase 1 (Homo sapiens, UniProt O94782); experiment: Inhibition of USP1 (unknown origin)
T3 sequence (O94782 whole entry): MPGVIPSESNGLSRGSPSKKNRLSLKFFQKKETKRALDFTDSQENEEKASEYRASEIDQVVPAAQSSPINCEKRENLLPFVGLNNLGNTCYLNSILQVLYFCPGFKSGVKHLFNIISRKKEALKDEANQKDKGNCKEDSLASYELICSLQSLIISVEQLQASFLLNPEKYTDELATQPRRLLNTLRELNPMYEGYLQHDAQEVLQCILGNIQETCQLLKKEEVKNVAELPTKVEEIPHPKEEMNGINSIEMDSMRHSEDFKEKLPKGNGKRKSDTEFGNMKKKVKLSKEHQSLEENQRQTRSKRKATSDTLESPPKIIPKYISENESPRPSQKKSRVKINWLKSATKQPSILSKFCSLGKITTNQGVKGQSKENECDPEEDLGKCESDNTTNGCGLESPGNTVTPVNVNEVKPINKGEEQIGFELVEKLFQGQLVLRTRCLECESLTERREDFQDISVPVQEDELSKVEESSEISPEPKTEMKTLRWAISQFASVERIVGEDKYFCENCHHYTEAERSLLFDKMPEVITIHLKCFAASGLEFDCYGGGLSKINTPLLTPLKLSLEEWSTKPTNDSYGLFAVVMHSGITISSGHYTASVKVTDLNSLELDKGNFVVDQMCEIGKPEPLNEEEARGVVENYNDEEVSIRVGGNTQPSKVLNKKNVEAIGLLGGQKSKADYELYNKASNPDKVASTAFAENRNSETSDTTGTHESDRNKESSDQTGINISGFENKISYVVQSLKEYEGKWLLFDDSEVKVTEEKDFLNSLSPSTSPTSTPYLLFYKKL

[7] = organism: Homo sapiens; experiment: Selectivity index, ratio of IC50 for USP1 (unknown origin) to IC50 for recombinant full length USP7 (unknown origin) using di-ubiquitin as substrate by fluorescence based assay
[8] = biological target: T1, Ubiquitin carboxyl-terminal hydrolase 7; experiment: Binding affinity to USP7 (unknown origin) by 1H-NMR-STD analysis
Target sequence in this assay (Q93009 whole entry, looked up): as the sequence (Q93009 whole entry) above

[9] = biological target: T1, Ubiquitin carboxyl-terminal hydrolase 7; experiment: Allosteric binding affinity to USP7 catalytic domain (unknown origin) at Met328 residues by NMR-15N-1H TROSY spectral titration analysis
Target sequence in this assay (Q93009 whole entry): as above

[10] = biological target: T1, Ubiquitin carboxyl-terminal hydrolase 7; experiment: Binding affinity to USP7 (unknown origin) by T2 relaxation experiment based analysis
Target sequence in this assay (Q93009 whole entry): as above

[11] = biological target: T1, Ubiquitin carboxyl-terminal hydrolase 7; experiment: Binding affinity to USP7 (unknown origin) by 1H-1H-NOESY experiment based analysis
Target sequence in this assay (Q93009 whole entry, looked up): as the sequence (Q93009 whole entry) above

[12] = Aqueous solubility of compound; format: physicochemical; conditions: water (aqueous)
[13] = biological target: T1, Ubiquitin carboxyl-terminal hydrolase 7; experiment: Allosteric binding affinity to USP7 catalytic domain (unknown origin) at His403, Gln351, Leu304, Ser353, Met328, Trp285 and Gly284 residues at 1.12 mM by NMR-15N-1H TROSY spectral titration analysis
Target sequence in this assay (Q93009 whole entry, looked up): as the sequence (Q93009 whole entry) above

[14] = biological target: T1, Ubiquitin carboxyl-terminal hydrolase 7; experiment: Allosteric binding affinity to USP7 catalytic domain (unknown origin) at Met328, Trp285, Gly284, Gln405 and Gly313 residues by NMR-15N-1H TROSY spectral titration analysis
Target sequence in this assay (Q93009 whole entry): as above

[15] = biological target: T1, Ubiquitin carboxyl-terminal hydrolase 7; experiment: Inhibition of recombinant human C-terminal His-tagged N-terminal GST-tagged full length USP7 using di-ubiquitin as substrate preincubated for 10 mins followed by substrate addition and measured after 60 mins by TR-FRET assay
Target sequence in this assay (Q93009 whole entry): as above

[16] = biological target: T1, Ubiquitin carboxyl-terminal hydrolase 7; experiment: Inhibition of recombinant human His-tagged USP7 (208 to 560 residues) expressed in Hi-five Sf9 cells using monoubiquitinated ubiquitin-rhodamine as substrate incubated for 1 hr by fluorescence based assay
Target sequence in this assay (Q93009 whole entry): as above

`Nc1nc2c(C(F)(F)F)cccn2c1-c1ccc(O)cc1` showed a Ratio IC50 [1] of over 2, a Ratio IC50 [2] of over 2 and an IC50 [3] of 26 µM. It also gave an IC50 [4] of over 100 µM, an IC50 [5] of over 100 µM and an IC50 [6] of over 100 µM. For the same compound, the Ratio IC50 [7] was over 2.

Work on `Nc1nc2ccccn2c1-c1ccc(O)cc1` yielded a Ratio IC50 [1] of over 2, a Ratio IC50 [2] of over 2 and an IC50 [3] of 24 µM. The IC50 [4] was over 100 µM, the IC50 [5] was over 100 µM and the IC50 [6] was over 100 µM. It also gave a Ratio IC50 [7] of over 2.

`Cc1ccn2c(-c3ccc(O)cc3)c(N)nc2c1` gave a Ratio IC50 [1] of over 2, a Ratio IC50 [2] of over 2 and an IC50 [3] of 27 µM. For the same compound, the IC50 [4] was over 100 µM, the IC50 [5] was over 100 µM and the IC50 [6] was over 100 µM. It also gave a Ratio IC50 [7] of over 2.

For `CC(=O)Nc1nc2ccccn2c1-c1ccc(O)cc1`, the Activity [8] was “Active”, the Kd [9] was 580 µM and the IC50 [3] was 34 µM. The Kd [10] was 540 µM, the IC50 [4] was over 100 µM and the Activity [11] was “Active”. The IC50 [5] was over 100 µM, the solubility [12] was over 800 µM and the Activity [13] was “Active”. For the same compound, the IC50 [6] was over 100 µM and the Kd [14] was 680 µM.

With `CC(C)Nc1nc2ccccn2c1-c1ccc(O)cc1` the Ratio IC50 [1] was over 2, the Ratio IC50 [2] was over 2 and the IC50 [3] was 7.9 µM. For the same compound, the IC50 [4] was over 100 µM, the IC50 [5] was over 100 µM and the IC50 [6] was over 100 µM. It also gave a Ratio IC50 [7] of over 2.

Work on `CN(C)c1nc2ccccn2c1-c1ccc(O)cc1` yielded a Ratio IC50 [1] of over 2, a Ratio IC50 [2] of over 2 and an IC50 [3] of 24 µM. The IC50 [4] was over 100 µM, the IC50 [5] was over 100 µM and the IC50 [6] was over 100 µM. The Ratio IC50 [7] was over 2.

Work on `CNc1nc2ccccn2c1-c1ccc(O)cc1` yielded a Ratio IC50 [1] of over 2, a Ratio IC50 [2] of over 2 and an IC50 [3] of 16 µM. The IC50 [4] was over 100 µM, the IC50 [5] was over 100 µM and the IC50 [6] was over 100 µM. For the same compound, the Ratio IC50 [7] was over 2.

In the case of `CCc1c(-c2ccc(C(=O)NC)nc2)cnc(N)c1-c1ccc(O)cc1`, the IC50 [15] is reported as 1.3 µM.

Compound `O=C(C[C@@H](C(F)F)n1ccc(F)n1)N1CCC(O)(Cn2cnc3c(cnn3-c3ccc(F)cc3)c2=O)CC1` has an IC50 [16] of 0.052 µM.

`Cc1ccc2nc(N)c(-c3ccc(O)cc3)n2c1` gave a Ratio IC50 [1] of over 2, a Ratio IC50 [2] of over 2 and an IC50 [3] of 39 µM. For the same compound, the IC50 [4] was over 100 µM, the IC50 [5] was over 100 µM and the IC50 [6] was over 100 µM. The Ratio IC50 [7] was over 2.

Compound `Cc1cccn2c(-c3ccc(O)cc3)c(N)nc12` has a Ratio IC50 [1] of over 2, a Ratio IC50 [2] of over 2 and an IC50 [3] of 8.8 µM. It also gave an IC50 [4] of over 100 µM, an IC50 [5] of over 100 µM and an IC50 [6] of over 100 µM. For the same compound, the Ratio IC50 [7] was over 2.

In the case of `Nc1nc2cc(C3CCNCC3)ccn2c1-c1ccc(O)cc1`, the Ratio IC50 [1] is reported as over 2, the Ratio IC50 [2] is reported as over 2 and the IC50 [3] is reported as 5.3 µM. For the same compound, the IC50 [4] was over 100 µM, the IC50 [5] was over 100 µM and the IC50 [6] was over 100 µM. For the same compound, the Ratio IC50 [7] was over 2.

`Nc1nc2ccc(C(F)(F)F)cn2c1-c1ccc(O)cc1` showed a Ratio IC50 [1] of over 2, a Ratio IC50 [2] of over 2 and an IC50 [3] of 48 µM. The IC50 [4] was over 100 µM, the IC50 [5] was over 100 µM and the IC50 [6] was over 100 µM. It also gave a Ratio IC50 [7] of over 2.

`Nc1nc2cc(C(F)(F)F)ccn2c1-c1ccc(O)cc1` showed a Ratio IC50 [1] of over 2, a Ratio IC50 [2] of over 2 and an IC50 [3] of 42 µM. For the same compound, the IC50 [4] was over 100 µM, the IC50 [5] was over 100 µM and the IC50 [6] was over 100 µM. For the same compound, the Ratio IC50 [7] was over 2.

With `COc1ccc(-c2c(N)nc3ccccn23)cc1` the Ratio IC50 [1] was over 2, the Ratio IC50 [2] was over 2 and the IC50 [3] was 38 µM. It also gave an IC50 [4] of over 100 µM, an IC50 [5] of over 100 µM and an IC50 [6] of over 100 µM. It also gave a Ratio IC50 [7] of over 2.

Reference: ChEMBL document CHEMBL4725339, “Discovery of USP7 small-molecule allosteric inhibitors” (Bioorg Med Chem Lett, 2020)
